Data as given in patent publication US20030194409A1, “Conjugate heat shock protein-binding peptides” (priority 2002, published 2003).
Where two headings read alike, the source gives them in different places.

Legend:
[1] = target: T1, gp96 in the presence of herbimycin A (Mus musculus, UniProt P08113); test: Affinity panning of phage display heptapeptide library on gp96 in the presence of herbimycin A; format: binding; details: for % actual (amino acid frequency in sequenced gp96-binding phage-expressed heptapeptides): TWEEN 20
T1 construct: The mouse cDNA encoding mature gp96 (i.e., wherein the endoplasmic reticulum signal peptide has been removed) was incorporated into the pET 11 a expression vector; made in house; host or cells: Escherichia coli BL21 (pET11gp96)
T1 sequence (P08113 22-802): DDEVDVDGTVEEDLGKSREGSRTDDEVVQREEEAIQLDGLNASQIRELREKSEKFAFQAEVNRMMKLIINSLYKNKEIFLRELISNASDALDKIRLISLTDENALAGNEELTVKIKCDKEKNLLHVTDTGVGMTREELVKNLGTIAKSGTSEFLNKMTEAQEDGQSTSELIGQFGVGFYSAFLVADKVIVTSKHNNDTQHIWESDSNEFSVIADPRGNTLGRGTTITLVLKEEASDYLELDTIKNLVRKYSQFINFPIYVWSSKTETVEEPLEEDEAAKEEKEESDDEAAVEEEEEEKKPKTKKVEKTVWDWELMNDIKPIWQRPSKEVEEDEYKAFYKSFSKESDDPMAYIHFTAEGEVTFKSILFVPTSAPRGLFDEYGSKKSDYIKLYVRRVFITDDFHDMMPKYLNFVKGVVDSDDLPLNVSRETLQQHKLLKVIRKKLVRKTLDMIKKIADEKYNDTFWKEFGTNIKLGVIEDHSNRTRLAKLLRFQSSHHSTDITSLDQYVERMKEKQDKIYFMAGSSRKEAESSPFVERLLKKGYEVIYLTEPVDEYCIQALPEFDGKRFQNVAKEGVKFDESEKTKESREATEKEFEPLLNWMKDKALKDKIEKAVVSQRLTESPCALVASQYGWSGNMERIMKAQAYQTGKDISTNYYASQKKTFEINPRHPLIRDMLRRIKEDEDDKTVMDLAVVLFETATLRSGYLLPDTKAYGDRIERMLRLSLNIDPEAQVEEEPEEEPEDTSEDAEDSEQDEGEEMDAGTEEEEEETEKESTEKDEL
Procedure: Preparation of a gp96 expression vector. The mouse cDNA encoding mature gp96 (i.e., wherein the endoplasmic reticulum signal peptide has been removed) was incorporated into the pET 11 a expression vector (Novagen) as follows. Gp96 cDNA insert was prepared by polymerase chain reaction (PCR) of a pRc/CMV clone containing the cDNA using the following oligonucleotide primers: […]
Expression of gp96. pET11gp96 was transformed into BL21 Escherichia coli cells, and plated on LB plates containing ampicillin (50 μg/ml). One of the resulting colonies was used to inoculate a 20 ml overnight culture of 2×TY medium containing ampicillin (150 μg/ml). The following day, the resulting culture was spun down and the harvested bacteria were resuspended in 1 ml of fresh medium. Two one liter cultures were then each inoculated with 0.5 ml of the harvested cells and allowed to grow at 37° C. until the optical density, measured at 600 nm, was 0.5. Then, IPTG was added to a concentration of 1 mM and the cells were cultured for another 3 hours before being harvested by centrifugation. The resulting cell pellet was resuspended in 20 ml of 50 mM HEPES pH 7.5, 50 mM KCl, 5 mM MgAcetate, 20% sucrose and 1 mM PMSF. Cell extracts were prepared by pressure shearing in a French Press. The lysates were then spun at 100,000×g for 1.5 hours and the supernatant, which constituted crude gp96 extract, was collected.
Purification of gp96. The following steps were all performed at 4° C. A 12.5 cm×3.2 cm column of DE52 resin (Whatman) was equilibrated in a solution of 50 mM MOPS pH 7.4, 10 mM NaCl, 5 mM MgAcetate (hereafter, “Buffer A”). The crude gp96 extract was diluted 2-fold and immediately loaded onto the column at a flow rate of 2 ml/min. Elution from the column was achieved using a gradient of a solution of 50 mM MOPS pH 7.4, 1M NaCl, 5 mM MgAcetate (hereafter, “Buffer B”) from 0% to 100% Buffer B over 1000 ml. The elution profile was examined by subjecting fractions collected from the column to SDS-PAGE analysis. Fractions containing gp96 were pooled and diluted 2-fold with cold water, and were immediately run onto the next column (see below).
A 10 cm×1 cm column of hydroxyapatite (BioRad) was washed with 100 ml 0.5 M K2HPO4, 50 mM KCl pH 7.4 and then equilibrated with 10 mM K2HPO4, 50 mM KCl pH 7.4. The pooled diluted fractions from the DE52 column were loaded onto this column at a flow rate of 1 ml/min. The gp96 protein was eluted in a gradient of 10-500 mM K2HPO4 over 800 ml. Fractions containing gp96 were pooled and loaded onto the phenylsepharose column described below.
A 9 cm×3 cm column of phenylsepharose (Pharmacia) was equilibrated with 500 mM NaCl, 50 mM MOPS pH 7.4. The pooled fractions containing gp96 from the hydroxyapatite were loaded onto this column at 1 ml/min and the gp96 was eluted in a gradient of 500-0 mM NaCl over 800 ml. The gp96 containing fractions collected from the column were identified by SDS-PAGE, pooled, and concentrated.
The gp96 was then loaded onto a Hi Load 26/60 Superdex-200 column (Pharmacia) equilibrated with 100 mM NaCl, 5 mM MgAcetate, 50 mM MOPS pH 7.5, 3 ml fractions were collected, and the fractions containing the most pure gp96 (as identified by SDS PAGE using a 12 percent reducing gel) and pooled. To the pooled fractions, glycerol was added to 10% (v/v), and then the fractions were concentrated to 21 mg/ml on a Centricon-50 concentrator (Amicon), frozen using liquid nitrogen, and stored at −80° C.
Affinity panning. The Ph.D. Phage Display Library Kit (New England BioLabs, Beverly, Mass.), was used for affinity panning. For each panning experiment, a well of a 96-well polystyrene microtiter plate (each well having a 6 mm diameter) was filled with 150 μl of a solution of 200 μg/ml of gp96 in 0.1 M NaHCO3 pH 8.3. If herbimycin A was to be included in the experiment, 1 μl of 10 mg/ml herbimycin A (GIBCO) in DMSO was added to each well, corresponding to a 50-fold molar excess relative to gp96. […]

[2] = target: T1, gp96 in the presence of herbimycin A; details: expected frequency for comparison with % actual, cited from earlier work
[3] = Table XII, gp96 and herbimycin A, binding buffer without calcium: 20 mM HEPES pH 7.5, 100 mM KCl, 1 mM DTT, 1 mM MgAcetate, 42 phage-expressed peptides sequenced
[4] = Table XIV, gp96 in the presence of herbimycin A, binding buffer with ATP: 20 mM HEPES pH 7.5, 100 mM KCl, 1 mM CaCl2, 1 mM MgAcetate, 1 mM ATP
[5] = Table XVI, binding buffer with AMP-PNP instead of ATP: 20 mM HEPES pH 7.5, 100 mM KCl, 1 mM CaCl2, 1 mM MgAcetate, 1 mM AMP-PNP

Molecule | % actual (amino acid frequency in sequenced gp96-binding phage-expressed heptapeptides) [1, 3] [%] | % actual (amino acid frequency in sequenced gp96-binding phage-expressed heptapeptides) [1, 4] [%] | % actual (amino acid frequency in sequenced gp96-binding phage-expressed heptapeptides) [1, 5] [%] | % expected (amino acid frequency) ([2]; Table XII) [%] | % expected (amino acid frequency) ([2]; Table XIV) [%] | % expected (amino acid frequency) ([2]; Table XVI) [%] | binding of phage-expressed peptides to gp96 ([1]; 20 mM HEPES pH 7.5, 100 mM KCl, 25 mM CaCl2, 5 mM MgAcetate, TWEEN-20, herbimycin A present)
CSCC[C@H](N)C(=O)O [Met] | 2.0 | 0 | 2.85 | 3.3 | 3.3 | 3.3 | –
O=C(O)[C@@H]1CCCN1 [Pro] | 10.88 | 14.2 | 12.8 | 12 | 12 | 12 | –
N[C@@H](Cc1ccccc1)C(=O)O [Phe] | 2.38 | 0 | 2.85 | 2.9 | 2.9 | 2.9 | –
N[C@@H](CS)C(=O)O [Cys] | 0 | 0 | 0 | 0.8 | 0.8 | 0.8 | –
CC(C)C[C@H](N)C(=O)O [Leu] | 12.92 | 10.7 | 5.7 | 11.8 | 11.8 | 11.8 | –
NC(=O)C[C@H](N)C(=O)O [Asn] | 3.06 | 5.3 | 5.7 | 4.1 | 4.1 | 4.1 | –
N[C@@H](CO)C(=O)O [Ser] | 10.88 | 16.0 | 4.28 | 11.4 | 11.4 | 11.4 | –
C[C@H](N)C(=O)O [Ala] | 10.2 | 3.57 | 8.5 | 7.2 | 7.2 | 7.2 | –
N[C@@H](Cc1c[nH]cn1)C(=O)O [His] | 5.44 | 10.7 | 12.8 | 4.3 | 4.3 | 4.3 | –
N[C@@H](Cc1c[nH]c2ccccc12)C(=O)O [Trp] | 1.36 | 3.57 | 2.85 | 1 | 1 | 1 | –
NC(=O)CC[C@H](N)C(=O)O [Gln] | 2.0 | 1.78 | 5.7 | 6.4 | 6.4 | 6.4 | –
CC(C)[C@H](N)C(=O)O [Val] | 4.08 | 5.3 | 8.5 | 4.3 | 4.3 | 4.3 | –
N[C@@H](Cc1ccc(O)cc1)C(=O)O [Tyr] | 4.76 | 7.1 | 4.28 | 2.9 | 2.9 | 2.9 | –
NCCCC[C@H](N)C(=O)O [Lys] | 3.74 | 0 | 2.85 | 1.7 | 1.7 | 1.7 | –
Phe-His-Trp-Trp-Trp (FHWWW; printed: Phe-His-Trp-Trp-Trp) | – | – | – | – | – | – | appeared to be favored
